Positions of bridges follow the written chain, without caps; N, C: chain ends. Non-standard residues stand in square brackets, D forms with d. Residues, ends and D or L forms follow the SMILES beside them. Chains are numbered I, II in the order given. No end group written: not given here. PEG6 = NCCOCCOCCOCCOCCOCCOCCC(=O)O
molecular target: T1, RSV-A/IZN45 (Human respiratory syncytial virus A, UniProt P03420); assay: SPR binding to RSV-A IZN45 N-trimer mimic; details: Kd, synthesized peptide; RSV-A/IZN45; KD determined by SPR
T1 construct: N-trimer Mimics Synthesized; made in house; host or cells: chemical peptide synthesis
T1 sequence (P03420 163-207, added parts left off): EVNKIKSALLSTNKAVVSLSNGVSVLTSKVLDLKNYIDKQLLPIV
Source text: (§1) IZN45 N-trimer mimic comprises the IZ domain, a highly soluble, designed coiled-coil that helps solubilize the N-trimer, along with the C-terminal (bottom) 45 residues of the RSV N-trimer. IZN45 encompasses the full ordered portion of the N-trimer except for three N-terminal residues (removed to maintain a continuous heptad repeat with the IZ domain). The interactions between 35-residue RSV C-peptides, T108 and T118 (Lambert et al., 1996, Proc. Natl. Acad. Sci. USA 93:2186-2191), and IZN45 was examined by surface plasmon resonance (SPR). SPR is a gold standard assay to measure the kinetics and affinity of biological interactions. […] The Biotinylated L-form of RSV target IZN45 was captured onto one lane of a NeutrAvidin coated SPR chip. A mutant version of IZN45 containing four mutated residues along the N-trimer groove designed to disrupt binding (IZN45 Full Mut, negative control) was captured onto a separate lane of the NeutrAvidin chip. T118, corresponding to the C-terminal portion of the RSV F ectodomain, which is known to interact with the RSV N-trimer groove, was flowed over the various surfaces. […] The surfaces were regenerated with a detergent (0.1% SDS) after each injection of analyte. Various concentrations of T118 were measured in duplicate or triplicate injections. D-peptide interactions with IZN45 and IZN45-Full Mut surfaces were also measured using this method.
(§2) Peptides from the ‘winning’ phage clones from each library were synthesized as D-peptides. If solubility of the peptides was limited, N- or C-terminal charged residue(s) (e.g., lysine) were attached as necessary as previously described for HIV peptides in Eckert et al., 1999, Cell 99:103-15, incorporated by reference in its entirety. Binding affinity and kinetics of the D-peptide inhibitors to the IZN45 and IZN45 mutants was characterized by SPR (Biacore 3000), using methods as described in Welch et al., 2007, Proc. Natl. Acad. Sci. USA 104:16828-33, incorporated by reference in its entirety.

Compound	Kd [µM]
I: H-[dK]G[dR][dW][dF][dE][dL][dP][dE][dP][dD][dW][dW]G[PEG6][dK]G[dK]G-NH2 / II: H-[dK]G[dR][dW][dF][dE][dL][dP][dE][dP][dD][dW][dW]G[PEG6] / III: H-[dK]G[dR][dW][dF][dE][dL][dP][dE][dP][dD][dW][dW]G[PEG6] (amide I:16-II:C, I:18-III:C) [KG-RSVP1-G(PEG6)-Tricasso]	~0.02
I: H-[dR][dW][dF][dE][dL][dP][dE][dP][dD][dW][dW]G[dK][PEG6][dK]G[dK]G-NH2 / II: H-[dR][dW][dF][dE][dL][dP][dE][dP][dD][dW][dW]G[dK][PEG6] / III: H-[dR][dW][dF][dE][dL][dP][dE][dP][dD][dW][dW]G[dK][PEG6] (amide I:15-II:C, I:17-III:C) [RSVP1-GK(PEG6)-Tricasso]	~0.02
I: [dK]G[dR][dW][dF][dE][dL][dP][dE][dP][dE][dW][dW]G[PEG6][dK]G[dK]G-NH2 / II: [dK]G[dR][dW][dF][dE][dL][dP][dE][dP][dE][dW][dW]G[PEG6] / III: [dK]G[dR][dW][dF][dE][dL][dP][dE][dP][dE][dW][dW]G[PEG6] (amide I:16-II:C, I:18-III:C) [KG-RSVP7-G(PEG6)-Tricasso]	~0.02

molecular target: T2, RSV-B/IZN45 (Human respiratory syncytial virus B, UniProt O36634); assay: biochemical; assay type: binding; details: synthesized peptide; RSV-B/IZN45; KD determined by SPR
T2 construct: N-trimer Mimics Synthesized; made in house; host or cells: chemical peptide synthesis
T2 sequence (O36634 163-207, added parts left off): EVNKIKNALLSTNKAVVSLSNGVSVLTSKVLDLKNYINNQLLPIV
Source text: as §1, §2

Compound	Kd [µM]
CSCC[C@@H](NC(=O)[C@@H](Cc1c[nH]c2ccccc12)NC(=O)[C@@H](Cc1c[nH]c2ccccc12)NC(=O)[C@@H](Cc1ccc(O)cc1)NC(=O)[C@@H](CCCCN)NC(=O)[C@@H](CC(C)C)NC(=O)[C@@H](CO)NC(C)=O)C(=O)N[C@H](CCC(=O)O)C(=O)N[C@H](CCC(=O)O)C(=O)N[C@H](CC(C)C)C(=O)N1CCC[C@@H]1C(=O)N[C@H](CC(C)C)C(=O)N1CCC[C@@H]1C(=O)N[C@H](CCCCN)C(=O)N[C@H](Cc1c[nH]c2ccccc12)C(=O)N[C@H](Cc1c[nH]c2ccccc12)C(N)=O [Ac-X16-18] (Ac-[dS][dL][dK][dY][dW][dW][dM][dE][dE][dL][dP][dL][dP][dK][dW][dW]-NH2)	11
CC(C)C[C@H]1NC(=O)[C@@H](CC(=O)O)NC(=O)[C@@H](Cc2c[nH]c3ccccc23)NC(=O)[C@@H]([C@H](C)O)NC(=O)[C@@H](Cc2c[nH]cn2)NC(=O)[C@H](NC(=O)[C@@H](C)NC(=O)CN)CSSC[C@H](C(=O)N[C@H](C)C(=O)N[C@H](C)C(=O)NCC(=O)N[C@H](CCCCN)C(N)=O)NC(=O)[C@@H](C(C)C)NC(=O)[C@@H](CC(=O)O)NC(=O)[C@@H](CC(C)C)NC(=O)[C@@H](Cc2c[nH]cn2)NC(=O)[C@@H](CC(N)=O)NC1=O [CX10C-86-GK] (H-G[dA][dC][dH][dT][dW][dD][dL][dN][dH][dL][dD][dV][dC][dA][dA]G[dK]-NH2; disulfide 3-14)	350
CC[C@@H](C)[C@H]1NC(=O)[C@@H](CCCCN)NC(=O)[C@H](NC(=O)[C@@H](C)NC(=O)CN)CSSC[C@H](C(=O)N[C@H](C)C(=O)N[C@H](C)C(=O)NCC(=O)NCC(N)=O)NC(=O)[C@@H](CC(=O)O)NC(=O)[C@@H](Cc2c[nH]cn2)NC(=O)[C@@H](Cc2c[nH]c3ccccc23)NC(=O)[C@@H](Cc2c[nH]cn2)NC(=O)[C@@H](Cc2ccccc2)NC(=O)[C@@H](CC(C)C)NC(=O)[C@@H](CC(=O)O)NC(=O)[C@@H](Cc2c[nH]cn2)NC1=O [CX10C-119-GG] (H-G[dA][dC][dK][dI][dH][dD][dL][dF][dH][dW][dH][dD][dC][dA][dA]GG-NH2; disulfide 3-14)	130
CC[C@@H](C)[C@H]1NC(=O)[C@@H](CCCCN)NC(=O)[C@H](NC(=O)[C@@H](C)NC(=O)CN)CSSC[C@H](C(=O)N[C@H](C)C(=O)N[C@H](C)C(N)=O)NC(=O)[C@@H](CC(=O)O)NC(=O)[C@@H](Cc2c[nH]cn2)NC(=O)[C@@H](Cc2c[nH]c3ccccc23)NC(=O)[C@@H](Cc2c[nH]cn2)NC(=O)[C@@H](Cc2ccccc2)NC(=O)[C@@H](CC(C)C)NC(=O)[C@@H](CC(=O)O)NC(=O)[C@@H](Cc2c[nH]cn2)NC1=O [CX10C-119] (H-G[dA][dC][dK][dI][dH][dD][dL][dF][dH][dW][dH][dD][dC][dA][dA]-NH2; disulfide 3-14)	100
CC[C@@H](C)[C@@H](N)C(=O)N[C@H](CO)C(=O)N[C@H](CC(C)C)C(=O)N1CCC[C@@H]1C(=O)N[C@@H](C(=O)N1CCC[C@@H]1C(=O)N[C@@H](C(=O)N[C@H](Cc1c[nH]c2ccccc12)C(=O)N[C@H](Cc1c[nH]c2ccccc12)C(=O)N1CCC[C@@H]1C(=O)N[C@H](CO)C(=O)N[C@@H](C(=O)NCC(=O)NCC(N)=O)[C@H](C)O)[C@H](C)O)[C@H](C)O [X12-45-GG] (H-[dI][dS][dL][dP][dT][dP][dT][dW][dW][dP][dS][dT]GG-NH2)	11
CC[C@@H](C)[C@@H](N)C(=O)N[C@H](CO)C(=O)N[C@H](CC(C)C)C(=O)N1CCC[C@@H]1C(=O)N[C@@H](C(=O)N1CCC[C@@H]1C(=O)N[C@@H](C(=O)N[C@H](Cc1c[nH]c2ccccc12)C(=O)N[C@H](Cc1c[nH]c2ccccc12)C(=O)N1CCC[C@@H]1C(=O)N[C@H](CO)C(=O)N[C@@H](C(=O)NCC(=O)N[C@H](CCCCN)C(N)=O)[C@H](C)O)[C@H](C)O)[C@H](C)O [X12-45-GK] (H-[dI][dS][dL][dP][dT][dP][dT][dW][dW][dP][dS][dT]G[dK]-NH2)	6
CC[C@@H](C)[C@@H](NC(=O)[C@H](NC(=O)[C@@H](CCCCN)NC(=O)[C@H](N)CO)C(C)C)C(=O)N[C@H](CC(C)C)C(=O)N1CCC[C@@H]1C(=O)N[C@H](CCC(=O)O)C(=O)N1CCC[C@@H]1C(=O)N[C@H](Cc1ccccc1)C(=O)N[C@H](Cc1c[nH]c2ccccc12)C(=O)N[C@H](Cc1c[nH]c2ccccc12)C(=O)N1CCC[C@@H]1C(=O)NCC(=O)NCC(N)=O [X12-47-GG] (H-[dS][dK][dV][dI][dL][dP][dE][dP][dF][dW][dW][dP]GG-NH2)	17
CC[C@@H](C)[C@@H](NC(=O)[C@H](NC(=O)[C@@H](CCCCN)NC(=O)[C@H](N)CO)C(C)C)C(=O)N[C@H](CC(C)C)C(=O)N1CCC[C@@H]1C(=O)N[C@H](CCC(=O)O)C(=O)N1CCC[C@@H]1C(=O)N[C@H](Cc1ccccc1)C(=O)N[C@H](Cc1c[nH]c2ccccc12)C(=O)N[C@H](Cc1c[nH]c2ccccc12)C(=O)N1CCC[C@@H]1C(N)=O [X12-47] (H-[dS][dK][dV][dI][dL][dP][dE][dP][dF][dW][dW][dP]-NH2)	10
CSCC[C@@H](NC(=O)[C@@H](Cc1c[nH]c2ccccc12)NC(=O)[C@@H](Cc1c[nH]c2ccccc12)NC(=O)[C@@H](Cc1ccc(O)cc1)NC(=O)[C@@H](CCCCN)NC(=O)[C@@H](CC(C)C)NC(=O)[C@H](N)CO)C(=O)N[C@H](CCC(=O)O)C(=O)N[C@H](CCC(=O)O)C(=O)N[C@H](CC(C)C)C(=O)N1CCC[C@@H]1C(=O)N[C@H](CC(C)C)C(=O)N1CCC[C@@H]1C(=O)N[C@H](CCCCN)C(=O)N[C@H](Cc1c[nH]c2ccccc12)C(=O)N[C@H](Cc1c[nH]c2ccccc12)C(=O)NCC(=O)NCC(N)=O [X16-18-GG] (H-[dS][dL][dK][dY][dW][dW][dM][dE][dE][dL][dP][dL][dP][dK][dW][dW]GG-NH2)	24
CSCC[C@@H](NC(=O)[C@@H](Cc1c[nH]c2ccccc12)NC(=O)[C@@H](Cc1c[nH]c2ccccc12)NC(=O)[C@@H](Cc1ccc(O)cc1)NC(=O)[C@@H](CCCCN)NC(=O)[C@@H](CC(C)C)NC(=O)[C@H](N)CO)C(=O)N[C@H](CCC(=O)O)C(=O)N[C@H](CCC(=O)O)C(=O)N[C@H](CC(C)C)C(=O)N1CCC[C@@H]1C(=O)N[C@H](CC(C)C)C(=O)N1CCC[C@@H]1C(=O)N[C@H](CCCCN)C(=O)N[C@H](Cc1c[nH]c2ccccc12)C(=O)N[C@H](Cc1c[nH]c2ccccc12)C(N)=O [X16-18] (H-[dS][dL][dK][dY][dW][dW][dM][dE][dE][dL][dP][dL][dP][dK][dW][dW]-NH2)	16
CC[C@@H](C)[C@@H](NC(=O)[C@@H](CC(=O)O)NC(=O)[C@@H](CC(=O)O)NC(=O)[C@@H](Cc1c[nH]c2ccccc12)NC(=O)[C@@H](Cc1c[nH]c2ccccc12)NC(=O)[C@H]1CCCN1C(=O)[C@@H](CCC(N)=O)NC(=O)[C@@H](CC(C)C)NC(=O)[C@H]1CCCN1C(=O)[C@@H](CC(C)C)NC(=O)[C@@H](Cc1c[nH]c2ccccc12)NC(=O)[C@H](N)Cc1c[nH]cn1)C(=O)N1CCC[C@@H]1C(=O)N[C@@H](C(=O)N[C@H](Cc1c[nH]c2ccccc12)C(=O)N[C@H](Cc1c[nH]cn1)C(=O)NCC(=O)N[C@H](CCCCN)C(N)=O)C(C)C [X16-20-GK] (H-[dH][dW][dL][dP][dL][dQ][dP][dW][dW][dD][dD][dI][dP][dV][dW][dH]G[dK]-NH2)	2

Reference: US10765754B2, “Compositions and methods related to inhibition of respiratory syncytial virus entry” (priority 2015, dated 2020)
